US20260070929A1, “METHODS AND COMPOSITIONS FOR MODULATING KRAS(G12D)” (Ranok Therapeutics (Hangzhou) Co. LTD., priority 2022, published 2026)

How the values were obtained:
KRAS(G12D)/SOS1 = biological target: T1, KRAS(G12D)/SOS1 (Homo sapiens, UniProt P01116, G12D); experiment: KRAS(G12D)/SOS1 homogeneous time-resolved fluorescence (HTRF) assay; format: binding; settings: absence of GTP; 4° C., 3 hr
T1 construct: purchased Cisbio 63ADK000CB17PEH
Method in brief: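 Disruption of the KRAS(G12D)/SOS1 pairing, in the absence of GTP, was read by time-resolved FRET after a 3 hr sealed incubation at 4 °C. Test compounds spanned 20 µM down to 1.02 nM in 3-fold steps. IC50 values correspond to half-maximal inhibition.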

[1] = system: AGS gastric carcinoma cells [heterozygous G12D]; experiment: Cancer cell line proliferation (CellTiter-Glo), AGS; format: cell-based; settings: Homo sapiens, 72 hr treatment, read-out: AGS CTG (EC50)
Method in brief: (§1)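 Cells at 4,000/well grown 72 hr, then treated with 3-fold serial dilutions (20 μM to 1.02 nM, 0.5% DMSO final) for 72 hr at 37° C/5% CO2. Viability by CellTiter-Glo luminescence; EC50 values calculated.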

[2] = system: A-427 lung carcinoma cells [heterozygous G12D]; experiment: Cancer cell line proliferation (CellTiter-Glo), A-427; format: cell-based; settings: Homo sapiens, A-427 cells, 72 hr treatment, read-out: A427 CTG (EC50)
Method in brief: as §1

[3] = system: SW1990 pancreatic adenocarcinoma cells [homozygous G12D]; experiment: Cancer cell line proliferation (CellTiter-Glo), SW1990; format: cell-based; settings: Homo sapiens, 72 hr treatment, read-out: SW1990 CTG (EC50)
Experimental: The following cancer cell lines were employed: AGS gastric carcinoma [heterozygous G12D](ATCC, CRL-1739); A-427 lung carcinoma [heterozygous G12D](ATCC, HTB-53); ASPC1 pancreatic adenocarcinoma [homozygous G12D](ATCC, CRL-1682) and SW1990 pancreatic adenocarcinoma [homozygous G12D](ATCC CRL-2172). Cell lines were cultured essentially according to ATCC recommendations.
AGS, A-427, ASPC1, SW1990, and GP2D cells were plated in 96-well tissue culture plates at 4,000 cells/well and incubated at 37° C./5% CO2 for 72 hr in 100 μl of media. 3-fold serial dilutions of each test compound were prepared ranging from 20 μM to 1.02 nM. Each cell line was then treated with test compounds at various concentrations with a final concentration of 0.5% DMSO/well, and then incubated at 37° C./5% CO2 for 72 hr. 100 µl of CellTiter-Glo® Reagent (Promega Corporation, Madison, WI) was added to each well and processed according manufacturer's protocol. Results were analyzed and EC50 values were calculated in GraphPad 7 software.

[4] = system: ASPC1 pancreatic adenocarcinoma cells [homozygous G12D]; experiment: Cancer cell line proliferation (CellTiter-Glo), ASPC1; format: cell-based; settings: Homo sapiens, ASPC1, 72 h, 72 hr treatment, read-out: ASPC-1 CTG (EC50)
Method in brief: as §1

T1 sequence (P01116 1-188 isoform P01116-2 G12D): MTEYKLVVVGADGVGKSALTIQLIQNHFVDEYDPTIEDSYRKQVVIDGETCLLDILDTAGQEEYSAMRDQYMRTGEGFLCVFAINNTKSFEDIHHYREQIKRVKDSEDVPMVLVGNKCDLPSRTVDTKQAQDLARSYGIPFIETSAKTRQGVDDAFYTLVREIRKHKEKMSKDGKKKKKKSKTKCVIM

Compound	IC50 (KRAS(G12D)/SOS1) [nM]	EC50 [1] [nM]	EC50 [2] [nM]	EC50 [3] [nM]	EC50 [4] [nM]
CCNC(=O)c1nnc(-c2cc(C(C)C)c(O)cc2O)n1-c1ccc(CN2CCC(CN3CCN([C@H]4C[C@@H](COc5nc(N6CC7CCC(C6)N7)c6cnc(-c7cccc(F)c7C)c(F)c6n5)N(C)C4)CC3)CC2)cc1 [Compound 83]	> 1000	< 100	< 100	< 100	
C#Cc1c(F)ccc2cc(O)cc(-c3ncc4c(N5CC6CCC(C5)N6)nc(OCC5(CN6CCN(CC7CN(Cc8ccc9c(c8)CN(C(=O)c8cc(C(C)C)c(O)cc8O)C9)C7)CC6)CC5)nc4c3F)c12 [Compound 164]	< 100	< 100		< 100	100 to 1000
C#Cc1c(F)ccc2cc(O)cc(-c3ncc4c(N5CC6CCC(C5)N6)nc(OCC5(CN6CCN(CC7CN(Cc8ccc(-n9c(C(=O)NC(C)C(F)(F)F)nnc9-c9cc(C(C)C)c(O)cc9O)cc8)C7)CC6)CC5)nc4c3F)c12 (stereo not shown) [Compound 165]	< 100	< 100		< 100	100 to 1000
C#Cc1c(F)ccc2cc(O)cc(-c3ncc4c(N5CC6CCC(C5)N6)nc(OCC5(CN6CCN(CC7CN(Cc8ccc(-n9c(C(=O)NCC(F)(F)F)nnc9-c9cc(C(C)C)c(O)cc9O)cc8)C7)CC6)CC5)nc4c3F)c12 [Compound 166]	< 100	< 100		< 100	< 100
C#Cc1c(F)ccc2cc(O)cc(-c3ncc4c(N5CC6CCC(C5)N6)nc(OCC5CN(Cc6ccc(-n7c(C(=O)NCC(F)(F)F)nnc7-c7cc(C(C)C)c(O)cc7O)cc6)C5)nc4c3F)c12 [Compound 175]	< 100	100 to 1000		100 to 1000	
C#Cc1c(F)ccc2cc(O)cc(-c3ncc4c(N5CC6CCC(C5)N6)nc(OC5CN(Cc6ccc(-n7c(C(=O)NC(C)C(F)(F)F)nnc7-c7cc(C(C)C)c(O)cc7O)cc6)C5)nc4c3F)c12 (stereo not shown) [Compound 176]	100 to 1000	100 to 1000		> 1000	
C#Cc1c(F)ccc2cc(O)cc(-c3ncc4c(N5CC6CCC(C5)N6)nc(OCC5(CN6CCN(C7CN(Cc8ccc9c(c8)CN(C(=O)c8cc(C(C)C)c(O)cc8O)C9)C7)CC6)CC5)nc4c3F)c12 [Compound 177]	< 100	< 100		< 100	
C#Cc1c(F)ccc2cc(O)cc(-c3nc(OC)c4c(N5CC6CCC(C5)N6)nc(OCC5(CN6CCN(C7CCN(Cc8ccc(-n9c(C(=O)NC(C)C(F)(F)F)nnc9-c9cc(C(C)C)c(O)cc9O)cc8)CC7)CC6)CC5)nc4c3F)c12 (stereo not shown) [Compound 178]	< 100	< 100		< 100	
C#Cc1c(F)ccc2cc(O)cc(-c3ncc4c(N5CC6CCC(C5)N6)nc(OC5CN(Cc6ccc(-n7c(C(=O)NCC(F)(F)F)nnc7-c7cc(C(C)C)c(O)cc7O)cc6)C5)nc4c3F)c12 [Compound 179]	100 to 1000	100 to 1000		> 1000	
C#Cc1c(F)ccc2cc(O)cc(-c3ncc4c(N5CC6CCC(C5)N6)nc(OCC5(CN6CCC(N7CCN(Cc8ccc9c(c8)CN(C(=O)c8cc(C(C)C)c(O)cc8O)C9)CC7)CC6)CC5)nc4c3F)c12 [Compound 180]	< 100	< 100		< 100	
C#Cc1c(F)ccc2cc(O)cc(-c3ncc4c(N5CC6CCC(C5)N6)nc(OCC5(CN6CCC(N7CCN(Cc8ccc(-n9c(C(=O)NC(C)C(F)(F)F)nnc9-c9cc(C(C)C)c(O)cc9O)cc8)CC7)CC6)CC5)nc4c3F)c12 (stereo not shown) [Compound 181]	< 100	< 100		< 100	
C#Cc1c(F)ccc2cc(O)cc(-c3nc(OC)c4c(N5CC6CCC(C5)N6)nc(OCC5(CN6CCC(C7CCN(Cc8ccc(-n9c(C(=O)NC(C)C(F)(F)F)nnc9-c9cc(C(C)C)c(O)cc9O)cc8)CC7)CC6)CC5)nc4c3F)c12 (stereo not shown) [Compound 182]	< 100	< 100		< 100	
C#Cc1c(F)ccc2cc(O)cc(-c3ncc4c(N5CC6CCC(C5)N6)nc(OCC5(CN6CCC7(CCN(Cc8ccc(-n9c(C(=O)NC(C)C(F)(F)F)nnc9-c9cc(C(C)C)c(O)cc9O)cc8)CC7)CC6)CC5)nc4c3F)c12 (stereo not shown) [Compound 183]	< 100	< 100		< 100	
C#Cc1c(F)ccc2cc(O)cc(-c3ncc4c(N5CC6CCC(C5)N6)nc(OCC5(CN6CCC7(CCN(Cc8ccc9c(c8)CN(C(=O)c8cc(C(C)C)c(O)cc8O)C9)CC7)CC6)CC5)nc4c3F)c12 [Compound 184]	< 100	< 100		< 100	
C#Cc1c(F)ccc2cc(O)cc(-c3ncc4c(N5CC6CNC(C6)C5)nc(OCC5(CN6CCC(C7CCN(Cc8ccc(-n9c(C(=O)NC(C)C(F)(F)F)nnc9-c9cc(C(C)C)c(O)cc9O)cc8)CC7)CC6)CC5)nc4c3F)c12 (stereo not shown) [Compound 185]	100 to 1000	100 to 1000		100 to 1000	
C#Cc1c(F)ccc2cc(O)cc(-c3nc(OC)c4c(N5CC6CCC(C5)N6)nc(OCC5(CN6CCC(C7CCN(Cc8ccc9c(c8)CN(C(=O)c8cc(C(C)C)c(O)cc8O)C9)CC7)CC6)CC5)nc4c3F)c12 [Compound 186]	< 100	< 100		< 100	
C#Cc1c(F)ccc2cc(O)cc(-c3ncc4c(N5CC6CNC(C6)C5)nc(OCC5(CN6CCC(C7CCN(Cc8ccc9c(c8)CN(C(=O)c8cc(O)c(C(C)C)cc8O)C9)CC7)CC6)CC5)nc4c3F)c12 (stereo not shown) [Compound 187]	100 to 1000	100 to 1000		> 1000	
C#Cc1c(F)ccc2cc(O)cc(-c3ncc4c(N5CC6CNC(C6)C5)nc(OCC5(CN6CCN(C7CCN(Cc8ccc(-n9c(C(=O)NC(C)C(F)(F)F)nnc9-c9cc(C(C)C)c(O)cc9O)cc8)CC7)CC6)CC5)nc4c3F)c12 (stereo not shown) [Compound 188]	100 to 1000	100 to 1000		100 to 1000	
C#Cc1c(F)ccc2cc(O)cc(-c3nc(OC)c4c(N5CC6CNC(C6)C5)nc(OCC5(CN6CCN(Cc7ccc(-n8c(C(=O)NCC)nnc8-c8cc(C(C)C)c(O)cc8O)cc7)CC6)CC5)nc4c3F)c12 (stereo not shown) [Compound 189]	< 100	< 100		< 100	
C#Cc1c(F)ccc2cc(O)cc(-c3nc(OC)c4c(N5CC6CCC(C5)N6)nc(OCC5(CN6CCN(Cc7ccc8c(c7)CN(C(=O)c7cc(C(C)C)c(O)cc7O)C8)CC6)CC5)nc4c3F)c12 [Compound 190]	< 100	< 100		< 100	
C#Cc1c(F)ccc2cc(O)cc(-c3nc(OC)c4c(N5CC6CCC(C5)N6)nc(OCC5(CNCC6CN(Cc7ccc8c(c7)CN(C(=O)c7cc(C(C)C)c(O)cc7O)C8)CCO6)CC5)nc4c3F)c12 (stereo not shown) [Compound 191]	< 100	< 100		100 to 1000	
C#Cc1c(F)ccc2cc(O)cc(-c3nc(OC)c4c(N5CC6CCC(C5)N6)nc(OCC5(CN6CCOC(CNCc7ccc8c(c7)CN(C(=O)c7cc(C(C)C)c(O)cc7O)C8)C6)CC5)nc4c3F)c12 (stereo not shown) [Compound 192]	> 1000	100 to 1000		100 to 1000	
C#Cc1c(F)ccc2cc(O)cc(-c3ncc4c(N5CC6CCC(C5)N6)nc(OCC5CN(C6CN(Cc7ccc8c(c7)CN(C(=O)c7cc(C(C)C)c(O)cc7O)C8)C6)C5)nc4c3F)c12 [Compound 193]	< 100	100 to 1000		100 to 1000	
C#Cc1c(F)ccc2cc(O)cc(-c3ncc4c(N5CC6CCC(C5)N6)nc(OCC5CN(CC6(CNc7ccc8c(c7)CN(C(=O)c7cc(C(C)C)c(O)cc7O)C8)CC6)C5)nc4c3F)c12 [Compound 194]	< 100	100 to 1000		100 to 1000	
